In PubChem BioAssay AID652212 (Johns Hopkins Ion Channel Center, 2013):
Calls of active or inactive are those of the source.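 How the source made its calls: active means peak inhibition of the TASK1 potassium channel above a set limit at some dose, plus a fitted dose response; inactive means no inhibition at any dose, or no fitted curve.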

molecular target: Potassium channel subfamily K member 3 (Homo sapiens) (UniProt O14649); assay: TASK1 (KCNK3) potassium channel inhibitors, SAR follow-up, CHO cells, FluxOR thallium flux (AID 652212); conditions: FluxOR thallium flux fluorescence
Sequence (O14649 whole entry, looked up): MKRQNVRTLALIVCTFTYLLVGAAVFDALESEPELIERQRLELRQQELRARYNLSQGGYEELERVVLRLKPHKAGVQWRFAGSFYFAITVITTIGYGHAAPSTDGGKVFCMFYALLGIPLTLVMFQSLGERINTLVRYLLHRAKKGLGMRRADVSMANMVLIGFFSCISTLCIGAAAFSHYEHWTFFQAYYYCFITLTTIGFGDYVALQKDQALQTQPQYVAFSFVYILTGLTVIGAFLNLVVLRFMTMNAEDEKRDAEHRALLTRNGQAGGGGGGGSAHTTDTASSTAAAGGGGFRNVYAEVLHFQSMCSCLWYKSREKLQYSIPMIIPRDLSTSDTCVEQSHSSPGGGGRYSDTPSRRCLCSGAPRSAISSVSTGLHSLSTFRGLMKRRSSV

| Structure (SMILES) | IC50 [nM] |
| --- | --- |
| COc1ccc(C(=O)Nc2cccc(NC(=O)c3cccc(C)c3)c2)cc1 | 1330 |
| O=C(Nc1cccc(NC(=O)c2ccc(F)cc2)c1)c1ccccc1 | 306 |
| Cc1cccc(C(=O)Nc2cccc(NC(=O)c3cccc(Cl)c3)c2)c1 | 3 |
| COc1cccc(C(=O)Nc2cccc(NC(=O)c3cccc(C)c3)c2)c1 | 31 |
| Cc1ccccc1C(=O)Nc1cccc(NC(=O)c2ccccc2)c1 | 104 |
| Cc1cccc(C(=O)Nc2cccc(NC(=O)c3ccc(N(C)C)cc3)c2)c1 | 145 |
| Cc1cccc(C(=O)Nc2cccc(NC(=O)c3cccc(F)c3)c2)c1 | 25 |
| CCOc1ccccc1C(=O)Nc1cccc(NC(=O)c2ccccc2C(F)(F)F)c1 | 2 |
| O=C(Nc1cccc(NC(=O)c2ccccn2)c1)c1ccccc1 | 86 |
| Cc1cccc(C(=O)Nc2cccc(NC(=O)c3ccccc3C)c2)c1 | 91 |
| O=C(Nc1cccc(NC(=O)c2ccncc2)c1)c1ccccc1 | 249 |
| CC(C)c1ccccc1C(=O)Nc1cccc(NC(=O)c2ccccc2OC(F)(F)F)c1 | 11 |
| O=C(Nc1cccc(NC(=O)c2ccsc2)c1)c1ccccc1 | 162 |
| COc1ccccc1C(=O)Nc1cccc(NC(=O)c2cccc(C)c2)c1 | 4 |
| COc1ccccc1C(=O)Nc1cccc(NC(=O)c2ccccc2C(C)C)c1 | 7 |
| COc1ccccc1C(=O)Nc1cccc(NC(=O)c2ccccc2OC(F)(F)F)c1 | 4 |
| COc1cccc(C(=O)Nc2cccc(NC(=O)c3ccccc3)c2)c1 | 327 |
| O=C(Nc1cccc(NC(=O)C2CCCCC2)c1)c1ccccc1 | 79 |
| Cc1cccc(C(=O)Nc2cccc(NC(=O)c3ccc(Cl)cc3)c2)c1 | 149 |
| CN(C)c1ccc(C(=O)Nc2cccc(NC(=O)c3ccccc3)c2)cc1 | 259 |
| O=C(Nc1cccc(NC(=O)c2cccs2)c1)c1ccccc1 | 29 |
| Cc1cccc(C(=O)Nc2cccc(NC(=O)c3ccccc3Cl)c2)c1 | 23 |
| Cc1cccc(C(=O)Nc2cccc(NC(=O)c3cccc(C)c3)c2)c1 | 30 |
| Cc1cccc(C(=O)Nc2cccc(NC(=O)c3ccco3)c2)c1 | 143 |

Now from value to compound:

| IC50 [nM] | Structure (SMILES) |
| --- | --- |
| 130 | O=C(Nc1cccc(NC(=O)c2ccccc2C(F)(F)F)c1)c1ccccc1 |
| 73 | COc1ccccc1C(=O)Nc1cccc(NC(=O)c2ccccc2C)c1 |
| 222 | COc1ccccc1C(=O)Nc1cccc(NC(=O)c2ccccc2)c1 |
| 1290 | O=C(Nc1cccc(NC(=O)c2cccnc2)c1)c1ccccc1 |
| 1 | CC(C)Oc1ccccc1C(=O)Nc1cccc(NC(=O)c2ccccc2OC(F)(F)F)c1 |
| 157 | O=C(Nc1cccc(NC(=O)c2cccc(C(F)(F)F)c2)c1)c1ccccc1 |
| 52 | O=C(Nc1cccc(NC(=O)c2cccc(Cl)c2)c1)c1ccccc1 |
| 10 | COc1ccccc1C(=O)Nc1cccc(NC(=O)c2ccccc2OC)c1 |
| 328 | Cc1cccc(C(=O)Nc2cccc(NC(=O)c3ccccc3C(C)C)c2)c1 |
| 497 | O=C(Nc1cccc(NC(=O)c2ccccc2Cl)c1)c1ccccc1 |
| 2 | CCOc1ccccc1C(=O)Nc1cccc(NC(=O)c2ccccc2OC)c1 |
| 799 | O=C(Nc1cccc(NC(=O)c2ccoc2)c1)c1ccccc1 |

same assay, conditions: FluxOR thallium flux fluorescence, at 3 µM (top of the series)

| normalized flux ratio, lower = inhibition | Structure (SMILES) |
| --- | --- |
| inactive | Cc1ccc(C(=O)Nc2cccc(NC(=O)c3ccccc3)c2)cc1 |
| inactive | O=C(Nc1cccc(NC(=O)c2ccc(C(F)(F)F)cc2)c1)c1ccccc1 |
| inactive | CC(C)(C)c1ccc(C(=O)Nc2cccc(NC(=O)c3ccccc3)c2)cc1 |
| inactive | O=C(Nc1cccc(NC(=O)c2ccc(Cl)cc2)c1)c1ccccc1 |
